# Measurements as given in BindingDB's records for PubMed 7616392 (Sanofi Recherche, 1995).
# Target: T1, Neuromedin-K receptor (Homo sapiens, UniProt P29371)
# T1 sequence (P29371 whole entry): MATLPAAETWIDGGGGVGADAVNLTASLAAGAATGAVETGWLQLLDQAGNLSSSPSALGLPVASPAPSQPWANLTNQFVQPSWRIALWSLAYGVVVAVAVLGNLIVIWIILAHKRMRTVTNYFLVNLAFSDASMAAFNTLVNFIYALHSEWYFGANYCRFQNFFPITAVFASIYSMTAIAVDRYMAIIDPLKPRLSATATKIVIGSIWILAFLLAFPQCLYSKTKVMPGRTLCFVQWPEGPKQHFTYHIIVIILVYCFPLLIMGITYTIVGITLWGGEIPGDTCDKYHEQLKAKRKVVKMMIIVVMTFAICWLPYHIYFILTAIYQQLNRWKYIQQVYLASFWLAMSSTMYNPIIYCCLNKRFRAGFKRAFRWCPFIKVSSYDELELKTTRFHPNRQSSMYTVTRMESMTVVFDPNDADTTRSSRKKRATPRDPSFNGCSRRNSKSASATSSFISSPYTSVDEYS
row,Structure (SMILES),Ki [nM]
1,CC(C)Oc1cccc(CC(=O)N2CCC[C@](CC[N+]34CCC(c5ccccc5)(CC3)CC4)(c3ccc(Cl)c(Cl)c3)C2)c1,1080
2,CC(=O)NC1(c2ccccc2)CCN(CCC(CN(C)C(=O)c2ccccc2)c2ccc(Cl)c(Cl)c2)CC1 (configuration not stated) [SR 48968],368
